# Experimental data reported in patent US20240091372A1, “ANTI-DOPPEL ANTIBODY DRUG CONJUGATES” (SEOUL NATIONAL UNIVERSITY R&DB FOUNDATION, priority 2022, published 2024).
# No end group written: not given here. *: point of attachment. MMAE = monomethyl auristatin E, CC[C@H](C)[C@@H]([C@@H](CC(=O)N1CCC[C@H]1[C@H](OC)[C@@H](C)C(=O)N[C@H](C)[C@@H](O)c1ccccc1)OC)N(C)C(=O)[C@@H](NC(=O)[C@H](C(C)C)N(C)*)C(C)C; p‑aminobenzylcarbamate = NC(=O)OCc1ccc(N*)cc1
# Assays:
# HCT116 xenograft tumor = assay: In vivo efficacy in HCT116 xenograft tumor model; parameters: species or system balb-c/nu mice; conditions: for tumor growth suppression (KGDEVD-MMAE ADCs): same tumor model, FIG. 7
# Procedure: To assess the anti-tumor efficacy of anti-doppel ADCs, an HCT116 xenograft tumor model was used. HCT116 cells (1×10^^7 cells/mouse) were inoculated into the left flank of balb-c/nu mice. When the average tumor volume reach 70-100 mm^3, ADC was administered intravenously every 4 days for a total of 4 times. Tumor volume was measured every 4 days until the end of the experiments.
# doppel = doppel (human, UniProt Q9UKY0 26-152); assay: cell-based or functional assay
# doppel, sequence (Q9UKY0 26-152): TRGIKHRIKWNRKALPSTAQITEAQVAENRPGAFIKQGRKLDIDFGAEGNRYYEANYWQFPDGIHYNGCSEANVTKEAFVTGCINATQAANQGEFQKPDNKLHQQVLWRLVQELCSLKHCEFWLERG
Molecule,tumor growth suppression (KGDEVD-MMAE ADCs) (HCT116 xenograft tumor),"IC50 (nM), cytotoxicity on HCT116 cells, viability after 72 hours (doppel)",further results
4D1-KGDEVD-MMAE: ADC prepared as 3H9-KGDEVD-MMAE using anti-doppel mAb 4D1 (maleimide-KGDEVD-{p‑aminobenzylcarbamate-MMAE}; also: conjugated to mAb 4D1 through maleimide),effectively suppressed tumor growth,,
3D5-KGDEVD-MMAE: ADC prepared as 3H9-KGDEVD-MMAE using anti-doppel mAb 3D5 (maleimide-KGDEVD-{p‑aminobenzylcarbamate-MMAE}; also: conjugated to mAb 3D5 through maleimide),effectively suppressed tumor growth,,
3H9-DEVD-MMAE: ADC prepared as 3H9-KGDEVD-MMAE except using maleimide-DEVD-MMAE (DEVD-{p‑aminobenzylcarbamate-MMAE}; not fully specified (N-terminus); also: conjugated to mAb 3H9 through maleimide),,,"tumor growth suppression, ADCs with different linkers (HCT116 xenograft tumor; HCT116 xenograft, FIG. 6): effectively suppressed tumor growth"
"3H9-KGDEVD-MMAE (name=SEQ ID NO:65; structure=SEQ ID NO:66) (antibody, human IgG1, kappa, V domains shown, maleimide-KGDEVD-MMAE (SEQ ID NO:77) linker-payload on reduced Cys residues of the partially reduced mAb; positions and chain not stated) VH: EVQLVESGGGLVQPGGSLRLSCAASGFTFSSYAMSWVRQAPGKGLEWVSGISGSGSRTDYADSVKGRFTISRDNSKNTLYLQMNSLRAEDTAVYYCAKVYTYTRGFAFDLWGQGTLVTVSS VL: DIQMTQSPSSLSASVGDRVTITCRASQSISNYLNWYQQKPGKAPKLLIYAASTLQSGVPSRFSGSGSGTDFTLTISSLQPEDFATYYCQQSYSFPYTFGQGTKVEIKR",,39.3 nM,
"3H9-vc-MMAE (antibody, human IgG1, kappa, V domains shown, mc-Val-Cit-PABA-MMAE linker-payload on reduced Cys residues of the partially reduced mAb; positions and chain not stated) VH: EVQLVESGGGLVQPGGSLRLSCAASGFTFSSYAMSWVRQAPGKGLEWVSGISGSGSRTDYADSVKGRFTISRDNSKNTLYLQMNSLRAEDTAVYYCAKVYTYTRGFAFDLWGQGTLVTVSS VL: DIQMTQSPSSLSASVGDRVTITCRASQSISNYLNWYQQKPGKAPKLLIYAASTLQSGVPSRFSGSGSGTDFTLTISSLQPEDFATYYCQQSYSFPYTFGQGTKVEIKR",,28.6 nM,
